How the values were obtained:
[1] = system: RNH activity of HIV-1; settings: read-out: IC50, inhibition of RNH activity; previously reported; cited from earlier work
[2] = target: T1, HIV-1 RT (Human immunodeficiency virus type 1 group M subtype B, UniProt P03366); experiment: Direct binding assay using surface plasmon resonance; settings: for Kd: KD^SPR
[3] = system: HIV-1 RT with benzoyl-L-phenylalanine in place of Tyr501; settings: cited from earlier work
[4] = target: T1, HIV-1 RT; experiment: Direct binding assay using intrinsic protein fluorescence; settings: KD^fluor
[5] = system: RNase H cleavage by HIV-1 RT; settings: cited from earlier work
[6] = system: HIV-1 integrase; experiment: Inhibition of HIV-1 integrase; format: biochemical; settings: data not shown
[7] = system: E. coli RNase H; settings: cited from earlier work
[8] = Enzyme + MgCl2, free enzyme (no substrate)

| Structure (SMILES) | IC50 [1] [µM] | IC50 [2] [µM] | Kd [2, 8] [µM] | Kd ([2]; Enzyme, no metal (MgCl2 omitted, EDTA added)) [µM] | Effect of substituting benzoyl-L-phenylalanine for Tyr501 on inhibition [3] | Kd ([4]; Enzyme + MgCl2 + ds RNA (non-hydrolyzable substrate analog)) [µM] | Kd [4, 8] [µM] | Inhibition of polymerase-independent secondary cuts in the RNA strand [5] | Inhibition of RNase H cleavage with pre-formed Enzyme·Substrate complex ([5]; pre-steady state conditions, ref Bielhartz et al) | Inhibition of polymerase dependent cleavage ([5]; ref Bielhartz et al) | Fold difference of IC50, RNH of HIV-1 RT vs HIV-1 integrase [6] | Fold difference of IC50, RNH of HIV-1 RT vs E. coli RNase H [7] [fold] |
| --- | --- | --- | --- | --- | --- | --- | --- | --- | --- | --- | --- | --- |
| CC(C)c1ccccc(=O)c1O [α-thujaplicin] | 50 |  |  |  |  |  |  |  |  |  |  |  |
| CC(C)c1ccc(O)c(=O)c(O)c1 [β-thujaplicinol, 2,7-dihydroxy-4-(propan-2-yl)-cyclohepta-2,4,6-trien-1-one] | 0.21 | > 100 | 6 ± 1 | > 100 | conferred resistance to inhibition | 0.185 ± 0.008 | 1 | inhibits polymerase-independent “secondary cuts” | unable to inhibit RNase H cleavage | not an inhibitor of polymerase dependent cleavage | over 10 fold | ~300 |

Reference: publication PMC3365588 (Structure(London, England:1993), 2009)
